What was measured:
Format in all cases: cell-based
Settings in all cases: 24 hours of compound treatment, 50 nM and 500 nM
[1] = target: T1, WEE1 (Homo sapiens, UniProt P30291+Q96SW2); assay: Western-blot assay, substrate protein degradation in hPBMCs: WEE1
T1 construct: effects of the compounds of the present disclosure on the expression of target proteins in cells; endogenous in cells; host or cells: human PBMCs (hPBMCs)

[2] = target: T2, IKZF1 (Homo sapiens, UniProt Q13422+Q96SW2); assay: Western-blot assay, substrate protein degradation in hPBMCs: IKZF1
T2 construct: effects of the compounds of the present disclosure on the expression of target proteins in cells; endogenous in cells; host or cells: human PBMCs (hPBMCs)
T2 sequence (Q13422 whole entry): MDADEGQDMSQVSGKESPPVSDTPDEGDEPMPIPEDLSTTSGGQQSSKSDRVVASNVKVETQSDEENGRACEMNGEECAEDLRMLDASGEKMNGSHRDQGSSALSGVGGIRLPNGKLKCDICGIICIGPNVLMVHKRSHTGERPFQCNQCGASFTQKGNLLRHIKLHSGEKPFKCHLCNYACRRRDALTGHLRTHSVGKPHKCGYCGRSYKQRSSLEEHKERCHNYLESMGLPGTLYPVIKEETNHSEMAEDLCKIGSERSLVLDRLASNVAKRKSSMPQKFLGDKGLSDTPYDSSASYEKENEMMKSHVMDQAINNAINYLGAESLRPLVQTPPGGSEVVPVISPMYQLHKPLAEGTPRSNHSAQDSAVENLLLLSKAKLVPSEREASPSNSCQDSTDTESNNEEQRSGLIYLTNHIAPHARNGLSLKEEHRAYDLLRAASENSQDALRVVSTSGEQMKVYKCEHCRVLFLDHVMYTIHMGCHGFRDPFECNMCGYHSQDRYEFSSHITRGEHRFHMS
T2 sequence (Q96SW2 whole entry): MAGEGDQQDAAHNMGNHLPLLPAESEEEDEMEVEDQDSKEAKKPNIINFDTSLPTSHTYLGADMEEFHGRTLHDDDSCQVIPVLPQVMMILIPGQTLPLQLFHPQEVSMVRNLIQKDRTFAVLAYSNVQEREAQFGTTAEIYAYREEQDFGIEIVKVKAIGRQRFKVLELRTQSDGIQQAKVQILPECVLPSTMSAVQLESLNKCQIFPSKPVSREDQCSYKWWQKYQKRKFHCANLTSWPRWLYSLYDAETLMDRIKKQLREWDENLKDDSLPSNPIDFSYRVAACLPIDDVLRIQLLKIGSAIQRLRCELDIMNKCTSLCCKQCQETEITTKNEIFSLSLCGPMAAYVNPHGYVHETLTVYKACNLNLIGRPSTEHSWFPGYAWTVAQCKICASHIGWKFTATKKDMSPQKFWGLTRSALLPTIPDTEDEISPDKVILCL
T2 sequence (Q16531 whole entry partner): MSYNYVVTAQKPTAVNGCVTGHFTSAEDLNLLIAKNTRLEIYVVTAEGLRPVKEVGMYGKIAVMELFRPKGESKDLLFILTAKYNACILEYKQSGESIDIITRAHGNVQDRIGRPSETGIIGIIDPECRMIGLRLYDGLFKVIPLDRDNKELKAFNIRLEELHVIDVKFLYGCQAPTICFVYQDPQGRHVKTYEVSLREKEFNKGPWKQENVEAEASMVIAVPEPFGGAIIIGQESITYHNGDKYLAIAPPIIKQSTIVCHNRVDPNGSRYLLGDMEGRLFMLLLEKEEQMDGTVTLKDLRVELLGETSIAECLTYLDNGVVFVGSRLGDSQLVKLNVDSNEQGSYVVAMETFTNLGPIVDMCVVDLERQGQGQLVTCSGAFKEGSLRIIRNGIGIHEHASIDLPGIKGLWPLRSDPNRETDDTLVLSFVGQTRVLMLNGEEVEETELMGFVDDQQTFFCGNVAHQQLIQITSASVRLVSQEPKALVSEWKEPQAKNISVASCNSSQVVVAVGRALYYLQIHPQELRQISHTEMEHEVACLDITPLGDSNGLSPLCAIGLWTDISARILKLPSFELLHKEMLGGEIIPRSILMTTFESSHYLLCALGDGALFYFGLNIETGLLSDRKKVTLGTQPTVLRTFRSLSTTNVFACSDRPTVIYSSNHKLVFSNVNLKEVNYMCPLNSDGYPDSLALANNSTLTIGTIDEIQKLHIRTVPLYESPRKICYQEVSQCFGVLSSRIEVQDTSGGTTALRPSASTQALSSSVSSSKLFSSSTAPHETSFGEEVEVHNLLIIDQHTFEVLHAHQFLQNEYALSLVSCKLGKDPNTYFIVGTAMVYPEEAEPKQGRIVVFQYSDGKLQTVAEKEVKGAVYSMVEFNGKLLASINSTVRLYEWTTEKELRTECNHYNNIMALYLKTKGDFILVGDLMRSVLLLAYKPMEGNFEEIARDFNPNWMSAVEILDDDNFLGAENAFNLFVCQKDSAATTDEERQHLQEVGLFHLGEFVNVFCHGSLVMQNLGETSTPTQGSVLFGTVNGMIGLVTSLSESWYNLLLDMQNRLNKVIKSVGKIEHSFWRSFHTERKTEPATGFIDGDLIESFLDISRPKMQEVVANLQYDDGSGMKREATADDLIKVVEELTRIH

[3] = target: T3, IKZF2 (Homo sapiens, UniProt Q96SW2+Q9UKS7); assay: Western-blot assay, substrate protein degradation in hPBMCs: IKZF2
T3 construct: effects of the compounds of the present disclosure on the expression of target proteins in cells; endogenous in cells; host or cells: human PBMCs (hPBMCs)
T3 sequence (Q9UKS7 whole entry): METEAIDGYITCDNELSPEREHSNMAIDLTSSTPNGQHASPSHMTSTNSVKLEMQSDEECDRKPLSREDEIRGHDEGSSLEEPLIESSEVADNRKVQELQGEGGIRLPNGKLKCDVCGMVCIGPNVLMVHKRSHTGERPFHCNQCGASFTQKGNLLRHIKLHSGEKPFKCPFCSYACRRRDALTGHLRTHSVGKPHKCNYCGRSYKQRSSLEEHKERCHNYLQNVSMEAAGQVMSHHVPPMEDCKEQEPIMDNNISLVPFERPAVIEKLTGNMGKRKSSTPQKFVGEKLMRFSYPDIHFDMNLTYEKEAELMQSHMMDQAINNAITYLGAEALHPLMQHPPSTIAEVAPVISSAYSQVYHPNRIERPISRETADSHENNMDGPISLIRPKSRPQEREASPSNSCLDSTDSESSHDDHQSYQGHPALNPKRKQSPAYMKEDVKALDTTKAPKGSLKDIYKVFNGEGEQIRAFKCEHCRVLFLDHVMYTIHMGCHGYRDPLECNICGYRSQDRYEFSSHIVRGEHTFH
T3 sequence (Q96SW2 whole entry): as the sequence (Q96SW2 whole entry) above
T3 sequence (Q16531 whole entry partner): as the sequence (Q16531 whole entry partner) above

[4] = target: T4, IKZF3 (Homo sapiens, UniProt Q96SW2+Q9UKT9); assay: Western-blot assay, substrate protein degradation in hPBMCs: IKZF3
T4 construct: effects of the compounds of the present disclosure on the expression of target proteins in cells; endogenous in cells; host or cells: human PBMCs (hPBMCs)
T4 sequence (Q9UKT9 whole entry): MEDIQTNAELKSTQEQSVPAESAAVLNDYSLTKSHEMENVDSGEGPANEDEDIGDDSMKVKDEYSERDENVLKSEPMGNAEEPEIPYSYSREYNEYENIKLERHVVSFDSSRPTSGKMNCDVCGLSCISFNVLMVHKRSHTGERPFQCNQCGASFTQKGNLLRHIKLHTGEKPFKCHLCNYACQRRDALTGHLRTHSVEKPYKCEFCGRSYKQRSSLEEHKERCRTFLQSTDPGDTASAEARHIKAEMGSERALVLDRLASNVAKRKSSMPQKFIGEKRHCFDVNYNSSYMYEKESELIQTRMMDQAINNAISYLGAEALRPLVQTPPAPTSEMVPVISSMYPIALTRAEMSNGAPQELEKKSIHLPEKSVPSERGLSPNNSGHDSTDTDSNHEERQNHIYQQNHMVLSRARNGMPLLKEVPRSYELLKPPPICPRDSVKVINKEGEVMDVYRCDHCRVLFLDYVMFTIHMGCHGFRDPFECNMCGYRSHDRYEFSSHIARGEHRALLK
T4 sequence (Q96SW2 whole entry): as the sequence (Q96SW2 whole entry) above
T4 sequence (Q16531 whole entry partner): as the sequence (Q16531 whole entry partner) above

[5] = target: T5, CK1α (Homo sapiens, UniProt P48729+Q96SW2); assay: Western-blot assay, substrate protein degradation in hPBMCs: CK1α
T5 construct: effects of the compounds of the present disclosure on the expression of target proteins in cells; endogenous in cells; host or cells: human PBMCs (hPBMCs)

[6] = target: T6, GSPT1 (Homo sapiens, UniProt P15170+Q96SW2); assay: Western-blot assay, substrate protein degradation in hPBMCs: GSPT1
T6 construct: effects of the compounds of the present disclosure on the expression of target proteins in cells; endogenous in cells; host or cells: human PBMCs (hPBMCs)
T6 sequence (P15170 whole entry): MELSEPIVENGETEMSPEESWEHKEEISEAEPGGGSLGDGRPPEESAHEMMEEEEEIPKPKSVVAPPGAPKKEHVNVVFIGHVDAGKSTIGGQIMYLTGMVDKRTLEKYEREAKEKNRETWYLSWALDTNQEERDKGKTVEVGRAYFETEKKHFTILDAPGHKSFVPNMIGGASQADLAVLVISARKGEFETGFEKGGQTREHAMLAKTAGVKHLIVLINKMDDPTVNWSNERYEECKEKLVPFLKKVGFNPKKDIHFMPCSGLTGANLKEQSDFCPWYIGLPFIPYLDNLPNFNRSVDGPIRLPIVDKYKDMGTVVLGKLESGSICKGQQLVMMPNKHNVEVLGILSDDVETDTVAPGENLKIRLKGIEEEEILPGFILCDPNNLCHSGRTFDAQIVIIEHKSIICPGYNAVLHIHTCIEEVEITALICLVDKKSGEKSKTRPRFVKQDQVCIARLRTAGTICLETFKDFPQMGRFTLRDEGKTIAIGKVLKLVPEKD
T6 sequence (Q96SW2 whole entry): as the sequence (Q96SW2 whole entry) above
T6 sequence (Q16531 whole entry partner): as the sequence (Q16531 whole entry partner) above

T1 sequence (P30291 whole entry): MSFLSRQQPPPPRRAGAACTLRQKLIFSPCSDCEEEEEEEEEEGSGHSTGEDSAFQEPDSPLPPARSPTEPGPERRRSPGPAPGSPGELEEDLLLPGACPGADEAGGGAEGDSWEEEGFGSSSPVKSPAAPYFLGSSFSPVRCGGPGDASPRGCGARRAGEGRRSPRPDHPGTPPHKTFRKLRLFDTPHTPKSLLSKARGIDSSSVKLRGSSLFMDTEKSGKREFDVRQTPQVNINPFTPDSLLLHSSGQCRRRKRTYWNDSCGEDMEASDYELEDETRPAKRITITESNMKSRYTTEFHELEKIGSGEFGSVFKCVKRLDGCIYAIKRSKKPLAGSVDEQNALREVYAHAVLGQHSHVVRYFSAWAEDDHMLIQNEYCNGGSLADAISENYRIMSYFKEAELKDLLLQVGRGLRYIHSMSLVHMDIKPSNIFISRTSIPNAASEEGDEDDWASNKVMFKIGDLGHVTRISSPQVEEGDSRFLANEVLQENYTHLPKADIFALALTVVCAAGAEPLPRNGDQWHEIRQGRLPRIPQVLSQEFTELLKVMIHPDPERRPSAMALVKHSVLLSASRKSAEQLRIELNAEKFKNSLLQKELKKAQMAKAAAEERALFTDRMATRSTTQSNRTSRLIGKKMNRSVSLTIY
T1 sequence (Q96SW2 whole entry): as the sequence (Q96SW2 whole entry) above
T1 sequence (Q16531 whole entry partner): as the sequence (Q16531 whole entry partner) above

Row | Structure (SMILES) | substrate protein remaining % WEE1 [1] | substrate protein remaining % IKZF1 [2] | substrate protein remaining % IKZF2 [3] | substrate protein remaining % IKZF3 [4] | substrate protein remaining % CK1α [5] | substrate protein remaining % GSPT1 [6]
1 | O=C1CCN(N2Cc3cc(CN4CCC(c5n[nH]c6cc(F)ccc56)CC4)ccc3C2=O)C(=O)N1 [GT-07508, 1-(5-((4-(6-fluoro-1H-indazol-3-yl)piperidin-1-yl)methyl)-1-oxoisoindolin-2-yl)dihydropyrimidine-2,4(1H,3H)-dione] | A (0% ≤ substrate protein remaining % ≤ 80%) | A (0% ≤ substrate protein remaining % ≤ 80%) | A (0% ≤ substrate protein remaining % ≤ 80%) | B (80%< substrate protein remaining %≤ 100%) | A (0% ≤ substrate protein remaining % ≤ 80%) | A (0% ≤ substrate protein remaining % ≤ 80%)
2 | O=C1CCN(N2C(=O)c3ccc(CN4CCC(c5noc6ccccc56)CC4)cc3C2=O)C(=O)N1 [GT-07522, 5-((4-(benzo[d]isoxazol-3-yl)piperidin-1-yl)methyl)-2-(2,4-dioxotetrahydropyrimidin-1(2H)-yl)isoindoline-1,3-dione] | A (0% ≤ substrate protein remaining % ≤ 80%) | A (0% ≤ substrate protein remaining % ≤ 80%) | A (0% ≤ substrate protein remaining % ≤ 80%) | B (80%< substrate protein remaining %≤ 100%) | A (0% ≤ substrate protein remaining % ≤ 80%) | A (0% ≤ substrate protein remaining % ≤ 80%)
3 | O=C1CCN(N2C(=O)c3ccc(CN4CCC(c5ccon5)CC4)cc3C2=O)C(=O)N1 [GT-07523, 2-(2,4-dioxotetrahydropyrimidin-1(2H)-yl)-5-((4-(isoxazol-3-yl)piperidin-1-yl)methyl)isoindoline-1,3-dione] | A (0% ≤ substrate protein remaining % ≤ 80%) | A (0% ≤ substrate protein remaining % ≤ 80%) | A (0% ≤ substrate protein remaining % ≤ 80%) | B (80%< substrate protein remaining %≤ 100%) | A (0% ≤ substrate protein remaining % ≤ 80%) | A (0% ≤ substrate protein remaining % ≤ 80%)
4 | O=C1CCN(N2C(=O)c3ccc(CN4CCN(c5noc6cc(F)ccc56)CC4)cc3C2=O)C(=O)N1 [GT-07524, 2-(2,4-dioxotetrahydropyrimidin-1(2H)-yl)-5-((4-(6-fluorobenzo[d]isoxazol-3-yl)piperazin-1-yl)methyl)isoindoline-1,3-dione] | A (0% ≤ substrate protein remaining % ≤ 80%) | A (0% ≤ substrate protein remaining % ≤ 80%) | A (0% ≤ substrate protein remaining % ≤ 80%) | B (80%< substrate protein remaining %≤ 100%) | B (80%< substrate protein remaining %≤ 100%) | A (0% ≤ substrate protein remaining % ≤ 80%)
5 | O=C1CCN(N2C(=O)c3ccc(CN4CCN(c5noc6ccncc56)CC4)cc3C2=O)C(=O)N1 [GT-07525, 2-(2,4-dioxotetrahydropyrimidin-1(2H)-yl)-5-((4-(isoxazolo[4,5-c]pyridin-3-yl)piperazin-1-yl)methyl)isoindoline-1,3-dione] | B (80%< substrate protein remaining %≤ 100%) | B (80%< substrate protein remaining %≤ 100%) | B (80%< substrate protein remaining %≤ 100%) | B (80%< substrate protein remaining %≤ 100%) | A (0% ≤ substrate protein remaining % ≤ 80%) | A (0% ≤ substrate protein remaining % ≤ 80%)
6 | O=C1CCN(N2C(=O)c3ccc(CN4CCN(c5nsc6cc(F)ccc56)CC4)cc3C2=O)C(=O)N1 [GT-07526, 2-(2,4-dioxotetrahydropyrimidin-1(2H)-yl)-5-((4-(6-fluorobenzo[d]isothiazol-3-yl)piperazin-1-yl)methyl)isoindoline-1,3-dione] | B (80%< substrate protein remaining %≤ 100%) | B (80%< substrate protein remaining %≤ 100%) | B (80%< substrate protein remaining %≤ 100%) | B (80%< substrate protein remaining %≤ 100%) | A (0% ≤ substrate protein remaining % ≤ 80%) | A (0% ≤ substrate protein remaining % ≤ 80%)
7 | O=C1CCN(N2C(=O)c3ccc(CN4CCN(c5n[nH]c6cc(F)ccc56)CC4)cc3C2=O)C(=O)N1 [GT-07527, 2-(2,4-dioxotetrahydropyrimidin-1(2H)-yl)-5-((4-(6-fluoro-1H-indazol-3-yl)piperazin-1-yl)methyl)isoindoline-1,3-dione] | B (80%< substrate protein remaining %≤ 100%) | B (80%< substrate protein remaining %≤ 100%) | B (80%< substrate protein remaining %≤ 100%) | B (80%< substrate protein remaining %≤ 100%) | A (0% ≤ substrate protein remaining % ≤ 80%) | A (0% ≤ substrate protein remaining % ≤ 80%)
8 | O=C1CCN(N2C(=O)c3ccc(CN4CCN(c5c[nH]c6ncccc56)CC4)cc3C2=O)C(=O)N1 [GT-07528, 5-((4-(1H-pyrrolo[2,3-b]pyridin-3-yl)piperazin-1-yl)methyl)-2-(2,4-dioxotetrahydropyrimidin-1(2H)-yl)isoindoline-1,3-dione] | B (80%< substrate protein remaining %≤ 100%) | B (80%< substrate protein remaining %≤ 100%) | B (80%< substrate protein remaining %≤ 100%) | B (80%< substrate protein remaining %≤ 100%) | A (0% ≤ substrate protein remaining % ≤ 80%) | A (0% ≤ substrate protein remaining % ≤ 80%)
9 | O=C1CCN(N2C(=O)c3ccc(CN4CCC(n5cnc6cc(F)ccc65)CC4)cc3C2=O)C(=O)N1 [GT-07529, 2-(2,4-dioxotetrahydropyrimidin-1(2H)-yl)-5-((4-(5-fluoro-1H-benzo[d]imidazol-1-yl)piperidin-1-yl)methyl)isoindoline-1,3-dione] | B (80%< substrate protein remaining %≤ 100%) | B (80%< substrate protein remaining %≤ 100%) | B (80%< substrate protein remaining %≤ 100%) | B (80%< substrate protein remaining %≤ 100%) | A (0% ≤ substrate protein remaining % ≤ 80%) | A (0% ≤ substrate protein remaining % ≤ 80%)
